From US7220775B2, “Compound useful for the treatment of neuropathic pain” (H. Lundbeck A/S, priority 2002, dated 2007)

Columns and labels:
[1] = biological target: T1, Human 5HT1D receptor (Homo sapiens, UniProt P28221); test: 5HT1D receptor binding ([3H]-serotonin); details: Table 8
T1 construct: expressed in transfected cells
Procedure: (§1) Human 5HT1B, 5HT1D, 5HT1E, 5HT1F, and 5HT7 Receptors: The cell lysates of LM(tk−) clonal cell line stably transfected with the genes encoding each of these 5HT receptor-subtypes were prepared as described above. Cell membranes were suspended in 50 mM Tris-HCl buffer (pH 7.4 at 37° C.) containing 10 mM MgCl2, 0.2 mM EDTA, 10 µM pargyline, and 0.1% ascorbate. […] Nonspecific binding was determined in the presence of 10 μM serotonin. The bound radioligand was separated by filtration through GF/B filters using a cell harvester.

[2] = biological target: T2, h5HT1A (Homo sapiens, UniProt P08908); test: 5-HT1A receptor binding (3H-8-OH-DPAT); details: Table 8
T2 construct: expressed in transfected cells; host or cells: COS-7 cells, transient, vector pCEXV-3
T2 sequence (P08908 whole entry): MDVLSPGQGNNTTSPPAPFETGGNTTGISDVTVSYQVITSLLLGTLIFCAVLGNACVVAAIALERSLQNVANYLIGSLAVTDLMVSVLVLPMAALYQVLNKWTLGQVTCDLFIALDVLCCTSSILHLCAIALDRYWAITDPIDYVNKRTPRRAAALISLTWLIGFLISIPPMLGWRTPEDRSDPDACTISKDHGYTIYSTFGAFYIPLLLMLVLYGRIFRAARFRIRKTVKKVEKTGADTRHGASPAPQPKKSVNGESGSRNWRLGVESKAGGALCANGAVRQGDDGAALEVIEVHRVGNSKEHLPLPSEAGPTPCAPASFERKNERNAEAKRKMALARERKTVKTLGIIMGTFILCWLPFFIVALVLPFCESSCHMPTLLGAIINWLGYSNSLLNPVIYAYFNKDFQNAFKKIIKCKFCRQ
Procedure: 5-HT1A Receptor: The cDNA corresponding to the 5-HT1A receptor open reading frames and variable non-coding 5′- and 3′-regions, was cloned into the eukaryotic expression vector pCEXV-3. These constructs were transfected transiently into COS-7 cells by the DEAE-dextran method (Cullen, 1987), and harvested after 72 hours. Radioligand binding assays were performed as described above for the 5-HT2A receptor, except that ^3H-8-OH-DPAT was used as the radioligand and nonspecific binding was determined by the addition of 10 μM mianserin.

[3] = biological target: T3, human dopamine D1 receptor (Homo sapiens, UniProt P21728); test: Dopamine D1 receptor binding; details: Table 10
T3 construct: purchased BioSignal, Inc. (Montreal, Canada)
T3 sequence (P21728 whole entry): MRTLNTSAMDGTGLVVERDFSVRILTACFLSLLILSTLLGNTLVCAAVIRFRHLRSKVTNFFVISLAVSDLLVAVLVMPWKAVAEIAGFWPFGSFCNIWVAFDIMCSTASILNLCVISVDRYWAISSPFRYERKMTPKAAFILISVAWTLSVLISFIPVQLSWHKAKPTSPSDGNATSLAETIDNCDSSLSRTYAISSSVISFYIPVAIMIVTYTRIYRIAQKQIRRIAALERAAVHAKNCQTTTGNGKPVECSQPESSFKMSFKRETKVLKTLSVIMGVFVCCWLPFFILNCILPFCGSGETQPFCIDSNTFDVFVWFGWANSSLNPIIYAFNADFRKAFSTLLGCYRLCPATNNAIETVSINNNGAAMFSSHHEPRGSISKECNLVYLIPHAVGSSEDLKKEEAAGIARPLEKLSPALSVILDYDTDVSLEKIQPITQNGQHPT
From the text: (§2) Other receptors: Cell membranes expressing human dopamine D1, D2, D4 and rat D3 receptors were purchased through BioSignal, Inc. (Montreal, Canada). Binding assays using the histamine H, receptor; dopamine receptors; and α1A, α1B, and α2 adrenergic receptors may be carried out according to the procedures described in U.S. Pat. No. 5,780,485, the disclosure of which is hereby incorporated by reference in its entirety into this application. Binding assays using the dopamine D5 receptor may be carried out according to the procedures described in U.S. Pat. No. 5,882,855, the disclosure of which is hereby incorporated by reference in its entirety into this application. Binding assays for the human α1D adrenergic receptor may be carried out according to the procedures described in U.S. Pat. No. 6,156,518, the disclosure of which is hereby incorporated by reference in its entirety into this application.

[4] = tested on: neuropathic rats (chronic constriction nerve injury); test: Chronic constriction nerve injury model of neuropathic pain: thermal hyperalgesia (Thermal Plantar Test); type: in vivo, rat
Procedure: The aim of this study was to assess the potential analgesic effects of Example 92 following intraperitoneal administration at the doses of 3, 10 and 30 mg/kg, respectively, in an animal model of neuropathic pain. A peripheral mononeuropathy was induced in the right hind limb of rats following a chronic constriction nerve injury (Bennett and Xie, 1988), and the development of mechanical allodynia and thermal hyperalgesia was monitored using established behavioral tests (Attal, N., et al., 1990; Hargreaves, K., et al., 1988).
Male Sprague-Dawley rats within the weight range of 200-225 g, and approximate age 7-9 weeks, were allowed to acclimate for a minimum of 6 days prior to the start of the behavioral testing.
All rats underwent a chronic constriction nerve injury, and of these, those that successfully developed allodynia and hyperalgesia were allocated to treatment groups.
There were 5 separate treatment groups (with a minimum of 10 rats per group). The treatment groups were as follows: • Group C received Morphine at 10 mg/kg (n=10) • Group D received Vehicle for Example 92* at 1 ml/kg (n=10) (* 100% DMSO) • Group E received Example 92 at 30 mg/kg (n=10) • Group F received Example 92 at 3 mg/kg (n=10) • Group G received Example 92 at 10 mg/kg (n=10)
The dose volume for all treatments was 1 ml/kg. Each rat received a single i.p. dose of the test substance, reference substance or vehicle on Day 12 PO. Test substance and vehicle dosing solutions were encoded (C-G) so that the observers were unaware of the identity of the treatment groups.
The behavioral tests (Von Frey filament and Thermal Plantar Tests—see below) were performed on all rats on 3 separate days prior to […], to establish baseline values. The pre-surgery baseline values were calculated as the mean of the last 2 days testing (the data from the first day of testing were not included as this was classed as part of the acclimating period). The sequence of tests was always mechanical allodynia (Von Frey Test) followed by thermal hyperalgesia (Thermal Plantar Test), with a minimum 5 min period allowed between the 2 tests.
Each rat was placed in a clear plastic chamber with a glass floor and allowed a short period to acclimatize to the new environment (approximately 5 min.). The animals were then challenged with a radiant Infrared (IR) heat source, directed at the plantar surface of the hind paw from below, and the withdrawal latency of both the ipsilateral and contralateral hind paws was evaluated. The infrared intensity was set at IR50 and the maximum length of exposure to the IR source was 18 s. Non-responding animals were allocated a withdrawal latency of 18 s.
The animals were surgically prepared over 5 days. […]

[5] = biological target: T4, DA transporter (rDA Uptk) (Rattus norvegicus, UniProt P23977); test: Binding at native DA transporter; details: Table 8
T4 construct: native, tissue-derived transporters; from tissue
T4 sequence (P23977 whole entry): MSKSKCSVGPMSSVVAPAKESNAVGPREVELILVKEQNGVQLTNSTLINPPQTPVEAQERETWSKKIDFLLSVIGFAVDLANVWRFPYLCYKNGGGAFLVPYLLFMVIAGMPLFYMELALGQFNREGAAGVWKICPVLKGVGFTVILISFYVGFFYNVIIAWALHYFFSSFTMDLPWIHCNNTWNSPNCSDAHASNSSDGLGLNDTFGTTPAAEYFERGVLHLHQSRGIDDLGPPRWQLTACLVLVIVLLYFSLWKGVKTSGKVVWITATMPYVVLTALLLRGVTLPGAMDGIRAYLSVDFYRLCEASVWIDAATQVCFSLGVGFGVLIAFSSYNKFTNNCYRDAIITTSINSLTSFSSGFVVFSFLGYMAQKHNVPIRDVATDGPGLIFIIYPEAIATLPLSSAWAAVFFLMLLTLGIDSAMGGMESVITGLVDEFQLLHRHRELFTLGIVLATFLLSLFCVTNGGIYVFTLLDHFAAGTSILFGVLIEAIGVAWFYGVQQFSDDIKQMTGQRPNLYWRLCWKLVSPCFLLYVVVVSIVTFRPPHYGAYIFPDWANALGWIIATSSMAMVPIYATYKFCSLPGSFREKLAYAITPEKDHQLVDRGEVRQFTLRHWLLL
Procedure: The binding properties of the compounds of the present invention were evaluated at one or more cloned receptors or native, tissue-derived transporters, using protocols described below.
The methods to determine binding affinity at native transporters are described in the following publications: 5HT transporter and NE transporter (Owens et al., 1997), and DA transporter (Javitch et al, 1984).

[6] = biological target: T5, Human 5HT1B receptor (Homo sapiens, UniProt P28222); test: 5HT1B receptor binding ([3H]-serotonin); details: Table 8
T5 construct: expressed in transfected cells
T5 sequence (P28222 whole entry): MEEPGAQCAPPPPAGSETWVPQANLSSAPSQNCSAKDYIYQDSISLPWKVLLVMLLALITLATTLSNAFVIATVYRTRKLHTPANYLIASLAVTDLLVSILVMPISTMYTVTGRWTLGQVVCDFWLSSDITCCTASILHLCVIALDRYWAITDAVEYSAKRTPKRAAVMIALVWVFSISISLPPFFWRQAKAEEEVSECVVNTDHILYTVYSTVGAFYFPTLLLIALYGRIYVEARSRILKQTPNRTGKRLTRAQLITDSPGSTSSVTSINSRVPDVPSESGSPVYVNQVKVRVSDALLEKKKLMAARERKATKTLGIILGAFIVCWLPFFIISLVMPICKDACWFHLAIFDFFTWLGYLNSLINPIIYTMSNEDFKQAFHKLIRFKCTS
Procedure: as §1

[7] = biological target: T6, Human 5HT1F receptor (Homo sapiens, UniProt P30939); test: 5HT1F receptor binding ([3H]-serotonin); details: Table 8
T6 construct: expressed in transfected cells
T6 sequence (P30939 whole entry): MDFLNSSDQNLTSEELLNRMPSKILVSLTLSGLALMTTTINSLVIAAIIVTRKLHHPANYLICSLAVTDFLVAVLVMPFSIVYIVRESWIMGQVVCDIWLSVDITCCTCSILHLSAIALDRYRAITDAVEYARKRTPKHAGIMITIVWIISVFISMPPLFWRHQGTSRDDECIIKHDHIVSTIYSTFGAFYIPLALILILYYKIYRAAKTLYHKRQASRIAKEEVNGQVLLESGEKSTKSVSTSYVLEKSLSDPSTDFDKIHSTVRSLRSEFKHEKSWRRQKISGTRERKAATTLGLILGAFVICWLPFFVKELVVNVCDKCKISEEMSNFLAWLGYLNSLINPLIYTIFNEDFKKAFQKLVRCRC
Procedure: as §1

[8] = biological target: T7, human α2A adrenoceptor (Homo sapiens, UniProt P08913); test: α2A adrenergic receptor binding; details: Table 10
T7 construct: expressed in transfected cells
T7 sequence (P08913 whole entry): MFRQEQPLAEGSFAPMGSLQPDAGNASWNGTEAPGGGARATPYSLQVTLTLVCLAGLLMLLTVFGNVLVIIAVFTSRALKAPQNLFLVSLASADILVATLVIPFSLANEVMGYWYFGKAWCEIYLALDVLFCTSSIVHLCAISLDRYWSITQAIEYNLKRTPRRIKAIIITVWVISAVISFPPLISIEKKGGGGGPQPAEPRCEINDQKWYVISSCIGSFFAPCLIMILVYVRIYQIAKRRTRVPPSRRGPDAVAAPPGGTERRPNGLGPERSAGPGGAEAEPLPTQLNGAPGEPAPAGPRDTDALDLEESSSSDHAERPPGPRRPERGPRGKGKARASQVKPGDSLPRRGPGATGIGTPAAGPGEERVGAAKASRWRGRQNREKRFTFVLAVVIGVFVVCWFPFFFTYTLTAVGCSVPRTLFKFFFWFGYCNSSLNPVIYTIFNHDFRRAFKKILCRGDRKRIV
From the text: as §2

[9] = biological target: human dopamine D5 receptor (Homo sapiens, UniProt P21918); test: Dopamine D5 receptor binding; details: Table 10
Chain of human dopamine D5 receptor (P21918 whole entry): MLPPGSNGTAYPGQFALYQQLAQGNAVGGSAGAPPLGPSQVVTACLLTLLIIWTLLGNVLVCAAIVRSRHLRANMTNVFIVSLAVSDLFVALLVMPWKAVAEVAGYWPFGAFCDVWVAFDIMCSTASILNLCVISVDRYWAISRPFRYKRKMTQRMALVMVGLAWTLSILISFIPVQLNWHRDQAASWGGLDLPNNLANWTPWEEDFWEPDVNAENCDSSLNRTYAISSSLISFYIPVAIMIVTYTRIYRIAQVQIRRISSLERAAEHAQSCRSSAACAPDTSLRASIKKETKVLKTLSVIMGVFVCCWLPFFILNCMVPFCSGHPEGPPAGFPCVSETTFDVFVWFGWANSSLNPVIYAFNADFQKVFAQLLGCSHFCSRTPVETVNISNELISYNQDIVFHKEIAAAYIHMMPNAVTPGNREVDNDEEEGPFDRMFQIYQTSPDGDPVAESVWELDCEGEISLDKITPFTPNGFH
From the text: as §2

T1 sequence (P28221 whole entry): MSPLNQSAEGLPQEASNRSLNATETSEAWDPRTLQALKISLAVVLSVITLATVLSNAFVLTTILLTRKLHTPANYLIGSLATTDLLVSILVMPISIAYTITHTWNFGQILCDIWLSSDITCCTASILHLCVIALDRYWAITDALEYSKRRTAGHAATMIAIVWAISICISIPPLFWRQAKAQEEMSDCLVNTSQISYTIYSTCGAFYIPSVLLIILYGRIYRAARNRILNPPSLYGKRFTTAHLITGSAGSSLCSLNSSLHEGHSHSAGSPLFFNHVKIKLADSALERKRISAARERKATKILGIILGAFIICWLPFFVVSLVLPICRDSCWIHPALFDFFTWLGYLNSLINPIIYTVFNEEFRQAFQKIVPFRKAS

O=C1C(=Nc2cccc(C(F)(F)F)c2)c2ccccc2N1c1ccccc1 [Example 92, 1-PHENYL-3-[[3-(TRIFLUOROMETHYL)PHENYL]IMINO]-1,3-DIHYDRO-2H-INDOL-2-ONE]
selectivity ratio h5HT1D (Ki h5HT1D / Ki hGAL3) [1]: >100
selectivity ratio h5HT1A (Ki h5HT1A / Ki hGAL3) [2]: >100
selectivity ratio hD1 (Ki hD1 / Ki hGAL3) [3]: >100
responses of the uninjured (contralateral) left paw (thermal plantar) vs vehicle ([4]; 3, 10, 30 mg/kg i.p., any time point): No significant changes
effect on withdrawal latency of the nerve-injured hind paw to the thermal plantar device ([4]; 3, 10 and 30 mg/kg i.p., approx. 40 and 100 min PD): no significant effect
selectivity ratio rDA Uptk (Ki rDA Uptk / Ki hGAL3) [5]: >100
selectivity ratio h5HT1B (Ki h5HT1B / Ki hGAL3) [6]: >100
selectivity ratio h5HT1F (Ki h5HT1F / Ki hGAL3) [7]: >100
selectivity ratio hα2A (Ki hα2A / Ki hGAL3) [8]: >100
selectivity ratio hD5 (Ki hD5 / Ki hGAL3) [9]: >100
